From US20250206754A1, “PAN-CHEMOKINE ANTAGONISTS FOR USE IN TREATING CANCER AND IMMUNE DISORDERS” ("Micar Innovation" LTD., priority 2022, published 2025)
Like-named read-outs stand apart in the source and are kept apart here.

System: 4T-1-luc cells
Assay type: in vivo
Conditions: for bioluminescence intensity of lung: Day32 after inoculation, ex vivo; for total number of metastasis found by the ex-vivo studies: control group 10; for Metastasis on Liver, mice with metastasis / Metastasis on Liver, total number / Metastasis on Lung, mice with metastasis / Metastasis on Lung, total number / Metastasis on ribs, mice with metastasis / Metastasis on ribs, total number: ex-vivo
Procedure: Design of the in vivo study: A total of 44 female BALB/c mice (12 mice for maximal tolerance dose (MTD) study; 32 mice for efficacy study) were used in the 4T-1-Luc study. The animals were specific pathogen free and approximately 4-5 weeks old at the initiation of the study.
Murine breast carcinoma cells 4T-1-luc cells used in this study, were cultured in a 37° C. incubator containing 5% CO2 with 10% FBS and 2 μg/mL puromycin in RPMI1640 medium. The cells were sub-cultured within 10 passages before inoculated into the mice. 2*10^5 4T-1-luc cells suspended in 20 uL PBS were orthotopically injected into the 4th fat pat on the right side of each mouse. Before inoculation, mice were pre-anesthetized with 30 mg/kg Zoletil mixed with 10 mg/kg Xylazine and kept anesthetized with 3-4% isoflurane. Injected subcutaneously 20 mg/kg Tolfedine as painkillers once a day for 3 days. The day of cell inoculation was denoted as Day0. On Day3, 16 bearing-tumor mice were randomized into 4 groups (4 mice per group) according to body weight and BLI signal. The information of the preparation of Hit 1 dosing solution is as follow:
(§1) For 2-({6-phenylthieno[2,3-d]pyrimidin-4-yl}oxy)benzamide (Hit1, MIC5022) 5 mg/kg dose, the preparation was like that: weighed 2.5 mg of Hit 1, added in 0.50 ml of ethanol, vortex or magnetic stirring enough to mix well (all compound dissolved will be better), added in 2.00 ml of PEG400, vortex or magnetic stirring until getting a clear solution (no more than 60° C. water base ultrasonicate may be needed), added 2.50 ml of water to get clear solution. The concentration was 0.5 mg/ml, the storage condition was at 4C temperature and the preparation frequency was each 5 days.
as §1, with “MIC5022) 30” for “MIC5022) 5”, “weighed 15” for “weighed 2.5”, “was 3” for “was 0.5”, “4C temperature,” for “4C temperature”
The concentration was 15 mg/ml, the storage condition was at 4C temperature, and the preparation frequency was each 5 days.
Each mouse has been observed for changes in general appearance and behavior every day for 4 weeks after grouping. The abnormal phenomena were recorded.
Body weight: Mice were measured and recorded twice a week after grouping, and during the dose period. Animals were also weighed in the event of accidental death or near-death euthanasia. Tumor volume: The tumor volume (V) was calculated as follows: V=(length×width2)/2. Tumor volume was measured twice per week. Tumor growth inhibition (TGI), TGI=(1−(T/C)×100%; T and C as the mean tumor volumes of the treatment and control groups on the measurement day.
The individual relative tumor volume (RTV) was calculated as follows: RTV=Vt/V0, where Vt was the volume on each day, and V0 was the volume at the beginning of the treatment. IVIS imaging: We used IVIS® In Vivo Imaging Systems (PerkinElmer, Waltham, MA) which allow high sensitivity and high resolution in vivo BLI and fluorescence imaging (FLI) across a wide range of wavelengths. Animals were imaged up to five at a time under 3-4% isoflurane gas anesthesia. Each mouse has been injected with D-Luciferin and imaged 10-15 minutes after the injection. BLI signal was quantified in regions of interest (ROIs) drawn around tumors or tissues ex vivo and the signal is expressed as photons per second, representing the flux radiating omni-directionally from the user-defined region […] post grouping (Day3, Day10, Day14, Day17, Day21, Day24, Day28 and Day31).

[1] = G2 5 mg/kg, Day31 after inoculation
[2] = G3 30 mg/kg, Day31 after inoculation
[3] = G4 150 mg/kg, Day31 after inoculation

NC(=O)c1ccccc1Oc1ncnc2sc(-c3ccccc3)cc12 [Hit 1, 2-({6-phenylthieno[2,3-d]pyrimidin-4-yl}oxy)benzamide]
bioluminescence intensity of lung (5 mg/kg): 1.07E+06
total number of metastasis found by the ex-vivo studies (5 mg/kg): 3
bioluminescence intensity of lung (30 mg/kg): 1.66E+06
total number of metastasis found by the ex-vivo studies (30 mg/kg): 2
bioluminescence intensity of lung (150 mg/kg): 1.56E+06
total number of metastasis found by the ex-vivo studies (150 mg/kg): 5
reduction of the spread of the tumor (bioluminescence vs control) (5, 30, 150 mg/kg, Day31): 6-10 folds
metastasis in liver and ribs (5, 30, 150 mg/kg, ex-vivo images and manual counting): completely eliminated
reduction of metastasis development (lung bioluminescence vs control) (5, 30 and 150 mg/kg, Day32): about five
Animal bioluminescence imaging intensity, Mean (G2 5 mg/kg p.o. QD, Day 3): 2.07E+07 10^8 p/s
Animal bioluminescence imaging intensity, Mean (G2 5 mg/kg p.o. QD, Day 10): 1.56E+08 10^8 p/s
Animal bioluminescence imaging intensity, Mean (G2 5 mg/kg p.o. QD, Day 17): 3.39E+08 10^8 p/s
Animal bioluminescence imaging intensity, Mean (G2 5 mg/kg p.o. QD, Day 21): 4.78E+08 10^8 p/s
Animal bioluminescence imaging intensity, Mean (G2 5 mg/kg p.o. QD, Day 24): 3.52E+08 10^8 p/s
Animal bioluminescence imaging intensity, Mean (G2 5 mg/kg p.o. QD, Day 28): 4.34E+08 10^8 p/s
Animal bioluminescence imaging intensity, Mean (G2 5 mg/kg p.o. QD, Day 31): 5.01E+08 10^8 p/s
bioluminescence intensity (G2 5 mg/kg, Day3 after inoculation): 0.21*10^7±0.056*10^8 p/s
tumor volume (TV) (G2 5 mg/kg, Day10 after inoculation): 86.53±6.03 mm^3
bioluminescence intensity [1]: 5.01*10^8±2.67*10^8 p/s
relative tumor volume (RTV) [1]: 5.99±0.61
tumor volume (TV) [1]: 515.90±53.18 mm^3
Metastasis on Liver, mice with metastasis (G2 (5 mg/kg)): (0/4 mice)
Metastasis on Liver, total number (G2 (5 mg/kg)): totally 0
Metastasis on Lung, mice with metastasis (G2 (5 mg/kg)): 2/4 and (2/4 mice)
Metastasis on Lung, total number (G2 (5 mg/kg)): totally 3
Metastasis on ribs, mice with metastasis (G2 (5 mg/kg)): (0/4 mice)
Metastasis on ribs, total number (G2 (5 mg/kg)): totally 0
TV, RTV and TW compared with G1 (G2, G3 and G4 (5, 30, 150 mg/kg), p>0.05): no significant differences
tumor weight (TW) (G3 30 mg/kg): 0.95 ± 0.16 g
Animal bioluminescence imaging intensity, Mean (G3 30 mg/kg p.o. QD, Day 3): 2.31E+07 10^8 p/s
Animal bioluminescence imaging intensity, Mean (G3 30 mg/kg p.o. QD, Day 10): 2.71E+08 10^8 p/s
Animal bioluminescence imaging intensity, Mean (G3 30 mg/kg p.o. QD, Day 17): 1.32E+08 10^8 p/s
Animal bioluminescence imaging intensity, Mean (G3 30 mg/kg p.o. QD, Day 21): 1.30E+08 10^8 p/s
Animal bioluminescence imaging intensity, Mean (G3 30 mg/kg p.o. QD, Day 24): 2.08E+08 10^8 p/s
Animal bioluminescence imaging intensity, Mean (G3 30 mg/kg p.o. QD, Day 28): 4.49E+08 10^8 p/s
Animal bioluminescence imaging intensity, Mean (G3 30 mg/kg p.o. QD, Day 31): 3.26E+08 10^8 p/s
bioluminescence intensity (G3 30 mg/kg, Day3 after inoculation): 0.23*10^7±0.075*10^8 p/s
tumor volume (TV) (G3 30 mg/kg, Day10 after inoculation): 90.30±7.67 mm^3
bioluminescence intensity [2]: 3.26*10^8±0.89*10^8 p/s
relative tumor volume (RTV) [2]: 5.33±0.64
tumor volume (TV) [2]: 489.69±85.03 mm^3
Metastasis on Liver, mice with metastasis (G3 (30 mg/kg)): (0/4 mice)
Metastasis on Liver, total number (G3 (30 mg/kg)): totally 0
Metastasis on Lung, mice with metastasis (G3 (30 mg/kg)): 2/4 and (2/4 mice)
Metastasis on Lung, total number (G3 (30 mg/kg)): totally 2
Metastasis on ribs, mice with metastasis (G3 (30 mg/kg)): (0/4 mice)
Metastasis on ribs, total number (G3 (30 mg/kg)): totally 0
RTV course (G3 group 30 mg/kg, after day 24): clear decrease in the RTV
tumor weight (TW) (G4 150 mg/kg): 1.05 ± 0.19 g
bioluminescence intensity (G4 150 mg/kg, Day3 after inoculation): 0.21*10^7±0.054*10^8 p/s
tumor volume (TV) (G4 150 mg/kg, Day10 after inoculation): 85.22±10.26 mm^3
bioluminescence intensity [3]: 5.08*10^8±2.16*10^8 p/s
relative tumor volume (RTV) [3]: 5.92±0.63
tumor volume (TV) [3]: 515.66±98.37 mm^3
Metastasis on Liver, mice with metastasis (G4 (150 mg/kg)): (0/4 mice)
Metastasis on Liver, total number (G4 (150 mg/kg)): totally 0
Metastasis on Lung, total number (G4 (150 mg/kg)): totally 5
Metastasis on ribs, mice with metastasis (G4 (150 mg/kg)): (0/4 mice)
Metastasis on ribs, total number (G4 (150 mg/kg)): totally 0
Animal bioluminescence imaging intensity, Mean (Q4 150 mg/kg p.o. QD, Day 3): 2.07E+07 10^8 p/s
Animal bioluminescence imaging intensity, Mean (Q4 150 mg/kg p.o. QD, Day 10): 4.97E+07 10^8 p/s
Animal bioluminescence imaging intensity, Mean (Q4 150 mg/kg p.o. QD, Day 15): 1.33E+08 10^8 p/s
Animal bioluminescence imaging intensity, Mean (Q4 150 mg/kg p.o. QD, Day 17): 2.43E+08 10^8 p/s
Animal bioluminescence imaging intensity, Mean (Q4 150 mg/kg p.o. QD, Day 21): 2.94E+08 10^8 p/s
Animal bioluminescence imaging intensity, Mean (Q4 150 mg/kg p.o. QD, Day 24): 3.20E+08 10^8 p/s
Animal bioluminescence imaging intensity, Mean (Q4 150 mg/kg p.o. QD, Day 28): 5.27E+08 10^8 p/s
Animal bioluminescence imaging intensity, Mean (Q4 150 mg/kg p.o. QD, Day 31): 5.08E+08 10^8 p/s
death or abnormal behavior during the experiment (efficacy study, 5, 30, 150 mg/kg p.o. QD): no mice death or abnormal behavior of mice
safety conclusion (mouse, in vivo): relatively biologically safe
